In US10072001B2, “Tank-binding kinase inhibitor compounds” (Gilead Sciences, Inc., priority 2014, dated 2018):

What was measured:
TBK1 = TBK1 (Homo sapiens (Human), UniProt Q9UHD2); test: TR-FRET kinase assay, TBK1; settings: read-out: TBK1-IC50; full length recombinant TBK1 2.5 nM, 2x Km ATP, 1 μM peptide, 240 min at 25° C.; geometric mean of minimum four determinations
Sequence of TBK1 (Q9UHD2 whole entry): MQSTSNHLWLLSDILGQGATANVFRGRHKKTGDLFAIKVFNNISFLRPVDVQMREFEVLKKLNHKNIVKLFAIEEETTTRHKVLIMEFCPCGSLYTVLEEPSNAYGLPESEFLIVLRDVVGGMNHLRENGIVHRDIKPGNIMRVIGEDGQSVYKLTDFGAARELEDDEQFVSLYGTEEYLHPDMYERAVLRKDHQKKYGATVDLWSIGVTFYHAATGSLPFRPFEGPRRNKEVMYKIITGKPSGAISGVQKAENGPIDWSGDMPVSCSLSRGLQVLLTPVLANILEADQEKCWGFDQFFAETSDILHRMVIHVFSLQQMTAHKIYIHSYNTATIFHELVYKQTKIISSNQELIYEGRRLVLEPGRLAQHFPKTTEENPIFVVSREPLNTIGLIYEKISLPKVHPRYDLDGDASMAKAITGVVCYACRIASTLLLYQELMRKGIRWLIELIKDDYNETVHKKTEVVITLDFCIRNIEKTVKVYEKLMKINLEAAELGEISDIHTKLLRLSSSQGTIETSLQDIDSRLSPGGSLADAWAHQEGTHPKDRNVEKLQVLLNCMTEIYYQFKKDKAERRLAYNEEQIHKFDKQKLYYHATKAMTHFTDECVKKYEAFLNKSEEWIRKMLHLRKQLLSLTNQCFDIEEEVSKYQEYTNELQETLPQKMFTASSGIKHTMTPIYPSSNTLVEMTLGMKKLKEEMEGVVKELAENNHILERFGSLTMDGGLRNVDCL

IKKε = IKKε (Homo sapiens (Human), UniProt Q14164); test: TR-FRET kinase assay, IKKε; type: biochemical; settings: full length recombinant IKKε 0.3 nM, 2x Km ATP, 1 μM peptide, 240 min at 25° C.; geometric mean of minimum four determinations
Sequence of IKKε (Q14164 whole entry): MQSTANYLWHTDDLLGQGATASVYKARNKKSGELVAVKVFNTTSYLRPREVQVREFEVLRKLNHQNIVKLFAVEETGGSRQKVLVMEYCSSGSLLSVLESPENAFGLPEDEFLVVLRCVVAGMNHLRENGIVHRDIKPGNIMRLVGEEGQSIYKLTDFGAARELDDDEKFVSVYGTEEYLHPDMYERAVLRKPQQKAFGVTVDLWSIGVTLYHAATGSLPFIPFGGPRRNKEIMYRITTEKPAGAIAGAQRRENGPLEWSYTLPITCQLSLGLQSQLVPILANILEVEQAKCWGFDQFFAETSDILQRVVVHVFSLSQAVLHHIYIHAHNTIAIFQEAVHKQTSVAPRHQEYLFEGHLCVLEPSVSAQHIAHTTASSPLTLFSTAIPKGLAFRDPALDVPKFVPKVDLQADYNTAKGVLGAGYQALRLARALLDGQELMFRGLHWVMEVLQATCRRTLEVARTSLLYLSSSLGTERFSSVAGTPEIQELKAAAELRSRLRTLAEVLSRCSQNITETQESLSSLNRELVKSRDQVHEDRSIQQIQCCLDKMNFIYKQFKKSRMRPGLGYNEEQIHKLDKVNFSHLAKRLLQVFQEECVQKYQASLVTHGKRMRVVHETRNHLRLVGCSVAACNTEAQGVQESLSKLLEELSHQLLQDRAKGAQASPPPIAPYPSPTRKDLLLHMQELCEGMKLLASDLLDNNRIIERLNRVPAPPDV
Text: Biological Assay for TBK1 and IKKs:

Compound | IC50 (TBK1) | IC50 (IKKε)
4-(2-cyano-4-(2-(4-(4-(2,2-difluoroethyl)piperazin-1-yl)phenyl)-3H-imidazo[4,5-b]pyridin-7-yl)phenoxy)piperidine-1-sulfonamide [Example 263] | 3.07 nM | 6.32 nM
N#Cc1cc(-c2ccnc3[nH]c(C4=CCNCC4)cc23)ccc1OC1CCOCC1 [Example 5, 2-((tetrahydro-2H-pyran-4-yl)oxy)-5-(2-(1,2,3,6-tetrahydropyridin-4-yl)-1H-pyrrolo[2,3-b]pyridin-4-yl)benzonitrile] | 29.8 nM | 39.7 nM
N#Cc1cc(-c2ccnc3[nH]c(-c4cccnc4)cc23)ccc1OC1CCOCC1 [Example 7, 5-(2-(pyridin-3-yl)-1H-pyrrolo[2,3-b]pyridin-4-yl)-2-((tetrahydro-2H-pyran-4-yl)oxy)benzonitrile] | 11.8 nM | 17 nM
N#Cc1cc(-c2ccnc3[nH]c(-c4ccc(N)nc4)cc23)ccc1OC1CCOCC1 [Example 11, 5-(2-(6-aminopyridin-3-yl)-1H-pyrrolo[2,3-b]pyridin-4-yl)-2-((tetrahydro-2H-pyran-4-yl)oxy)benzonitrile] | 5.53 nM | 9.51 nM
CC1(COc2ccc(-c3ccnc4[nH]c(-c5ccc(N6CCOCC6)cc5)cc34)cc2C#N)COC1 [Example 12, 2-((3-methyloxetan-3-yl)methoxy)-5-(2-(4-morpholinophenyl)-1H-pyrrolo[2,3-b]pyridin-4-yl)benzonitrile] | 14.1 nM | 41 nM
N#Cc1cc(-c2ccnc3[nH]c(-c4ccc(N5CCOCC5)cc4)cc23)ccc1N1CCCC1=O [Example 13, 5-(2-(4-morpholinophenyl)-1H-pyrrolo[2,3-b]pyridin-4-yl)-2-(2-oxopyrrolidin-1-yl)benzonitrile] | 24.9 nM | 182 nM
N#Cc1cc(-c2ccnc3[nH]c(-c4ccc(N5CCOCC5)cc4)cc23)ccc1O[C@@H]1CCNC1 [Example 14, (R)-5-(2-(4-morpholinophenyl)-1H-pyrrolo[2,3-b]pyridin-4-yl)-2-(pyrrolidin-3-yloxy)benzonitrile] | 6.86 nM | 20.8 nM
CC(C)(C)OC(=O)N1CC[C@@H](Oc2ccc(-c3ccnc4[nH]c(-c5ccc(N6CCOCC6)cc5)cc34)cc2C#N)C1 [Example 17, (R)-tert-butyl 3-(2-cyano-4-(2-(4-morpholinophenyl)-1H-pyrrolo[2,3-b]pyridin-4-yl)phenoxy)pyrrolidine-1-carboxylate] | 146 nM | 394 nM
N#Cc1cc(-c2ccnc3[nH]c(-c4ccc(N5CCOCC5)cc4)cc23)ccc1OC1CCNCC1 [Example 18, 5-(2-(4-morpholinophenyl)-1H-pyrrolo[2,3-b]pyridin-4-yl)-2-(piperidin-4-yloxy)benzonitrile] | 17.1 nM | 33.2 nM
N#CCC(=O)N1CCC(Oc2ccc(-c3ccnc4[nH]c(-c5ccc(N6CCOCC6)cc5)cc34)cc2C#N)CC1 [Example 20, 2-((1-(2-cyanoacetyl)piperidin-4-yl)oxy)-5-(2-(4-morpholinophenyl)-1H-pyrrolo[2,3-b]pyridin-4-yl)benzonitrile] | 9.25 nM | 27.5 nM
CC(C)(C)OC(=O)N1CCC(Oc2ccc(-c3ccnc4[nH]c(-c5ccc(N6CCOCC6)cc5)cc34)cc2C#N)CC1 [Example 21, tert-butyl 4-(2-cyano-4-(2-(4-morpholinophenyl)-1H-pyrrolo[2,3-b]pyridin-4-yl)phenoxy)piperidine-1-carboxylate] | 696 nM | > 1000 nM
N#Cc1cc(-c2ccnc3[nH]c(-c4ccc(N5CCOCC5)cc4)cc23)ccc1O[C@H]1CCNC1 [Example 22, (S)-5-(2-(4-morpholinophenyl)-1H-pyrrolo[2,3-b]pyridin-4-yl)-2-(pyrrolidin-3-yloxy)benzonitrile] | 39.6 nM | 132 nM
N#Cc1cc(-c2ccnc3[nH]c(C#CC4CCOCC4)cc23)ccc1OC1CCOCC1 [Example 35, 5-(2-((tetrahydro-2H-pyran-4-yl)ethynyl)-1H-pyrrolo[2,3-b]pyridin-4-yl)-2-((tetrahydro-2H-pyran-4-yl)oxy)benzonitrile] | 52.8 nM | –
N#Cc1cc(-c2ccnc3[nH]c(-c4ccc(N5CC6(COC6)C5)cc4)cc23)ccc1OC1CCOCC1 [Example 46, 5-(2-(4-(2-oxa-6-azaspiro[3.3]heptan-6-yl)phenyl)-1H-pyrrolo[2,3-b]pyridin-4-yl)-2-((tetrahydro-2H-pyran-4-yl)oxy)benzonitrile] | – | 13 nM
N#CCC(=O)N1CCN(c2ccc(-c3cc4c(-c5ccc(OC6CCOCC6)c(C#N)c5)ccnc4[nH]3)cc2)CC1 [Example 57, 5-(2-(4-(4-(2-cyanoacetyl)piperazin-1-yl)phenyl)-1H-pyrrolo[2,3-b]pyridin-4-yl)-2-((tetrahydro-2H-pyran-4-yl)oxy)benzonitrile] | – | 2.98 nM
N#Cc1cc(-c2ncnc3[nH]ccc23)ccc1OC1CCOCC1 [Example 108, 5-(7H-pyrrolo[2,3-d]pyrimidin-4-yl)-2-((tetrahydro-2H-pyran-4-yl)oxy)benzonitrile] | – | 2230 nM
N#Cc1cc(-c2ncnc3[nH]c(C4=CCC5(CC4)OCCO5)cc23)ccc1OC1CCN(C(=O)CO)CC1 [Example 175, 5-(6-(1,4-dioxaspiro[4.5]dec-7-en-8-yl)-7H-pyrrolo[2,3-d]pyrimidin-4-yl)-2-((1-(2-hydroxyacetyl)piperidin-4-yl)oxy)benzonitrile] | – | 5.84 nM
Cc1ncc(-c2nc3c(-c4ccc(OC5CCOCC5)c(C#N)c4)ncnc3[nH]2)s1 [Example 231, 5-(8-(2-methylthiazol-5-yl)-9H-purin-6-yl)-2-((tetrahydro-2H-pyran-4-yl)oxy)benzonitrile] | 52.8 nM | –
COC(=O)c1ccc(-c2cc3c(-c4ccc(OC5CCOCC5)c(C#N)c4)ccnc3[nH]2)cc1 [Example 238, Methyl 4-(4-(3-cyano-4-((tetrahydro-2H-pyran-4-yl)oxy)phenyl)-1H-pyrrolo[2,3-b]pyridin-2-yl)benzoate] | – | 1000 nM

Continued by falling IC50 (TBK1), values first:

IC50 (TBK1) | IC50 (IKKε) | Compound
4.39 nM | – | N#Cc1cc(-c2ncnc3[nH]c(-c4ccc(N5CCOCC5)nc4)cc23)ccc1OC1CCOCC1 [Example 155, 5-(6-(6-morpholinopyridin-3-yl)-7H-pyrrolo[2,3-d]pyrimidin-4-yl)-2-((tetrahydro-2H-pyran-4-yl)oxy)benzonitrile]
4.32 nM | 13.8 nM | N#CCC(=O)N1CC[C@@H](Oc2ccc(-c3ccnc4[nH]c(-c5ccc(N6CCOCC6)cc5)cc34)cc2C#N)C1 [Example 16, (R)-2-((1-(2-cyanoacetyl)pyrrolidin-3-yl)oxy)-5-(2-(4-morpholinophenyl)-1H-pyrrolo[2,3-b]pyridin-4-yl)benzonitrile]
3.26 nM | – | CC(C)(O)c1ccc(-c2cc3c(-c4ccc(OC5CCN(C(=O)CO)CC5)c(C#N)c4)ncnc3[nH]2)cn1 [Example 132, 2-((1-(2-hydroxyacetyl)piperidin-4-yl)oxy)-5-(6-(6-(2-hydroxypropan-2-yl)pyridin-3-yl)-7H-pyrrolo[2,3-d]pyrimidin-4-yl)benzonitrile]
3.13 nM | 4.87 nM | N#Cc1cc(-c2ccnc3[nH]c(-c4cnn(C5COC5)c4)cc23)ccc1OC1CCOCC1 [Example 6, 5-(2-(1-(oxetan-3-yl)-1H-pyrazol-4-yl)-1H-pyrrolo[2,3-b]pyridin-4-yl)-2-((tetrahydro-2H-pyran-4-yl)oxy)benzonitrile]
3.09 nM | 6.99 nM | N#Cc1cc(-c2ccnc3[nH]c(-c4ccc(C5(O)COC5)cc4)cc23)ccc1OC1CCOCC1 [Example 8, 5-(2-(4-(3-hydroxyoxetan-3-yl)phenyl)-1H-pyrrolo[2,3-b]pyridin-4-yl)-2-((tetrahydro-2H-pyran-4-yl)oxy)benzonitrile]
2.84 nM | – | N#Cc1cc(-c2cc3c(-c4ccc(OC5CCOCC5)c(C#N)c4)ncnc3[nH]2)ccc1OC1CCOCC1 [Example 223, 5,5′-(7H-pyrrolo[2,3-d]pyrimidine-4,6-diyl)bis(2-((tetrahydro-2H-pyran-4-yl)oxy)benzonitrile)]
2.38 nM | 1.41 nM | N#Cc1cc(-c2ccnc3[nH]c(-c4cnn(C5CNC5)c4)cc23)ccc1OC1CCOCC1 [Example 9, 5-(2-(1-(azetidin-3-yl)-1H-pyrazol-4-yl)-1H-pyrrolo[2,3-b]pyridin-4-yl)-2-((tetrahydro-2H-pyran-4-yl)oxy)benzonitrile]
1.9 nM | 3.72 nM | N#Cc1cc(-c2ccnc3[nH]c(-c4ccc(N5CCOCC5)cc4)cc23)ccc1OC1CCN(C(=O)CO)CC1 [Example 19, 2-((1-(2-hydroxyacetyl)piperidin-4-yl)oxy)-5-(2-(4-morpholinophenyl)-1H-pyrrolo[2,3-b]pyridin-4-yl)benzonitrile]
1.34 nM | 2.45 nM | N#Cc1cc(-c2ccnc3[nH]c(-c4ccc(N5CCOCC5)cc4)cc23)ccc1O[C@@H]1CCN(C(=O)CO)C1 [Example 15, (R)-2-((1-(2-hydroxyacetyl)pyrrolidin-3-yl)oxy)-5-(2-(4-morpholinophenyl)-1H-pyrrolo[2,3-b]pyridin-4-yl)benzonitrile]
1.22 nM | 1.74 nM | N#Cc1cc(-c2ccnc3[nH]c(-c4cnn(C5CCNCC5)c4)cc23)ccc1OC1CCOCC1 [Example 10, 5-(2-(1-(piperidin-4-yl)-1H-pyrazol-4-yl)-1H-pyrrolo[2,3-b]pyridin-4-yl)-2-((tetrahydro-2H-pyran-4-yl)oxy)benzonitrile]
1 nM | – | COc1cc(-c2cc3c(-c4ccc(OC5CCOCC5)c(C#N)c4)ncnc3[nH]2)ccc1N1CCOCC1 [Example 136, 5-(6-(3-methoxy-4-morpholinophenyl)-7H-pyrrolo[2,3-d]pyrimidin-4-yl)-2-((tetrahydro-2H-pyran-4-yl)oxy)benzonitrile]
0.91 nM | – | N#Cc1cc(-c2ncnc3[nH]c(-c4ccc(N5CCN(CC(F)F)CC5)cc4)cc23)ccc1OC1CCN(C(=O)CO)CC1 [Example 264, 5-(6-(4-(4-(2,2-difluoroethyl)piperazin-1-yl)phenyl)-7H-pyrrolo[2,3-d]pyrimidin-4-yl)-2-((1-(2-hydroxyacetyl)piperidin-4-yl)oxy)benzonitrile]
